{"source": "patent US20080306001A1", "about": "“TRANSCRIPTIONAL MODULATION OF EXTRACELLULAR MATRIX (ECM) OF DERMAL FIBROBLASTS” (priority 2007, published 2008)", "key": {"[1]": {"system": "human dermal fibroblast cell lines obtained from elderly patients", "assay": "Effect of CPP mimicking peptides on synthesis of collagen I, collagen II and elastin in aged dermal fibroblasts (Western blot)", "type": "cell-based", "conditions": "peptide 10 μM", "procedure": "The ability to interfere interaction of TAF4, BRG1 and N-CoR1 with the active transcriptional complex and stimulate synthesis of collagen I, collagen II and elastin was tested on 2 human dermal fibroblast cell lines obtained from elderly patients. It has been shown that: • TAF4 suppression using siRNA stimulates expression of numerous genes in embryonic fibroblasts. (Mengus G, Fadloun A, Kobi D, Thibault C, Perletti L, Michel I, Davidson I. 2005. TAF4 inactivation in embryonic fibroblasts activates TGFbeta signaling and autocrine growth. EMBO J. 2005 Aug. 3; 24(15):2753-67.) • Brg1 inhibits numerous genes during development. (Inayoshi Y, Kaneoka H, Machida Y, Terajima M, Dohda T, Miyake K, Iijima S. 2005. Repression of GR-mediated expression of the tryptophan oxygenase gene by the SWI/SNF complex during liver development. J Biochem (Tokyo). 2005 October; 138(4):457-65) • N-CoR1 plays a crucial role in the repressive activity of diverse transcription factors (J. Frasor, J. M. Danes, C. C. Funk and B. S. Katzenellenbogen. 2005. Estrogen down-regulation of the corepressor N-CoR: Mechanism and implications for estrogen derepression of N-CoR-regulated genes. PNAS. vol. 102 no. 37, 13153-13157.) • SMAD7 functions as a component of negative feedback regulation that controls timining and extent of TGFbeta signaling (Zhu X, Topouzis S, Liang L F, Stotish RL. Myostatin signaling through Smad2, Smad3 and Smad4 is regulated by the inhibitory Smad7 by a negative feedback mechanism. Cytokine. 2004 Jun. 21; 26(6):262-72.) • TAF10 is one of the TATA box-binding protein-associated factors (TAFs), which constitute the TFIID complex.\n(§1) Human dermal fibroblasts were cultured in standard conditions (DMEM, 10% FCS, penicillin+streptomycin) and used in experiments after three passages in the laboratory. Cells were grown in 24 well plates, each treatment in triplicates. Cells were plated 16 hours prior treatments started. Peptides were added to the media, and media was changed every day during 7 day experiment. CPP concentration was 10 μM.\n(§2) Western blot using antibodies against fibronectin, thrombospondin, collagen I, collagen II, collagen 4, elastin, MMP1, MMP2, MMP7 and TIMP1 were performed using standard protocols. Cells were lysed in SDS loading buffer and separated on 5% SDS PAGE following transfer onto PVD membrane using semidry blotting. Antibodies were diluted 1:2000 and incubated for 2 hours followed by secondary antibody conjugated to alkaline phosphatase. Antibody binding was visualized using one step BCIP reagent (Pierce)."}, "human dermal fibroblasts [2]": {"system": "human dermal fibroblasts", "assay": "Effect of peptides on expression of growth factors, protein (Western blot)", "type": "cell-based", "conditions": "peptide 10 μM", "procedure": "as §1, with “12” for “24”\nas §2, with “Western blots” for “Western blot”, “against growth factors” for “against fibronectin, thrombospondin, collagen I, collagen II, collagen 4, elastin, MMP1, MMP2, MMP7 and TIMP1”"}, "dermal fibroblasts [3]": {"system": "dermal fibroblasts", "assay": "Effect of interfering peptides on expression of ECM components, protein level (Western blot)", "type": "cell-based, human", "procedure": "as §1, §2\n(§3) The cells were treated with peptides (1 μM) 24 hours for the mRNA analysis and 72 hours for protein analysis. All experiments were done in triplicates. Variation between replicates was less that 15%."}, "human dermal fibroblasts [4]": {"system": "human dermal fibroblasts", "assay": "Effect of peptides on expression of growth factors, mRNA (RT-PCR)", "type": "cell-based", "procedure": "as §1, with “12” for “24”\n(§4) Total RNA from various human tissues was purified using RNAwiz (Ambion, USA) and subjected to subsequent DNase I treatment using the DNA-Free kit (Ambion). Total RNA from cancer cells was purified by using 4PCRmini kit (Ambion). First-strand cDNAs were synthesized with Superscript III reverse transcriptase (Invitrogen, USA) and 5 μg of total RNA using oligo d(T) priming in a final reaction volume of 50 μL\nThe cDNA was amplified by PCR using the 2,5U Hot-Firepol (Solis BioDyne, Estonia) and buffer Yellow (Naxo, Estonia). Reaction was performed in a 10 ul volume, using 0.5 ul cDNA as a template. Primer sets were designed to specifically amplify the nucleic acid sequence for the corresponding growth factor for this study: […]"}, "human dermal fibroblasts [5]": {"system": "human dermal fibroblasts", "assay": "Whole genome gene expression analysis (Affymetrix GeneChip Human Gene 1.0 ST Array)", "type": "cell-based", "conditions": "peptide 10 μM, 24 hour", "procedure": "Human dermal fibroblasts were cultured in standard conditions (DMEM, 10% FCS, penicillin+streptomycin) and used in experiments after three passages in the laboratory. Cells were grown in 60 mm plates, each treatment in duplicates. Cells were plated 16 hours prior treatments started. Peptides (10 μM) were added to the media, and cells were collected for RNA isolation 24 hour later.\nTotal RNA was purified by using 4PCRmini kit (Ambion). First-strand cDNAs were synthesized with Superscript III reverse transcriptase (Invitrogen, USA) and 5 μg of total RNA using oligo d(T) priming in a final reaction volume of 50 μL and used to generate fluorescently labeled probes for whole genome gene expression analysis. Whole genome gene expression analysis was conducted using Affymetrix GeneChip™ Human Gene 1.0 ST Array."}, "dermal fibroblasts [6]": {"system": "dermal fibroblasts", "assay": "Effect of interfering peptides on expression of ECM components, mRNA level (RT-PCR)", "type": "cell-based, human", "conditions": "peptide 1 μM, 24 hours", "procedure": "as §1, §4\nThe cDNA was amplified by PCR using the 2,5U Hot-Firepol (Solis BioDyne, Estonia) and buffer Yellow (Naxo, Estonia). Reaction was performed in a 10 ul volume, using 0.5 ul cDNA as a template. Following primer sets were designed for this study:\nas §3"}, "[7]": {"conditions": "fibroblast 1 (first block of Table 1)"}, "[8]": {"conditions": "second block of Table 1 (also fibroblast 1)"}}, "data": [{"sequence": "RPKKRKVRRRMGLGKTIQTIALITYLMEHKRINGP [BRG1.1, CPP-mimicking peptide]", "values": [{"measurement": "collagen I, fold increase after 7 days", "setting": "[1]; [7]", "result": 7, "unit": "fold"}, {"measurement": "collagen II, fold increase after 7 days", "setting": "[1]; [7]", "result": 2, "unit": "fold"}, {"measurement": "elastin, fold increase after 7 days", "setting": "[1]; [7]", "result": 3, "unit": "fold"}, {"measurement": "collagen I, fold increase after 7 days", "setting": "[1]; [8]", "result": 3, "unit": "fold"}, {"measurement": "collagen II, fold increase after 7 days", "setting": "[1]; [8]", "result": 5, "unit": "fold"}, {"measurement": "elastin, fold increase after 7 days", "setting": "[1]; [8]", "result": 6, "unit": "fold"}]}, {"sequence": "RPKKRKVRRRGQLNSDHKSQLVEKVRLKIGCGIQL [SMAD7.1, CPP-mimicking peptide]", "values": [{"measurement": "CTGF protein, fold stimulation of expression compared to control", "setting": "human dermal fibroblasts [2]", "result": 15, "unit": "fold"}, {"measurement": "HGF protein, fold stimulation of expression compared to control", "setting": "human dermal fibroblasts [2]", "result": 1.7, "unit": "fold"}, {"measurement": "IGF-1 protein, fold stimulation of expression compared to control", "setting": "human dermal fibroblasts [2]", "result": 1, "unit": "fold"}, {"measurement": "VEGF protein, fold stimulation of expression compared to control", "setting": "human dermal fibroblasts [2]", "result": 1.3, "unit": "fold"}, {"measurement": "b-FGF protein, fold stimulation of expression compared to control", "setting": "human dermal fibroblasts [2]", "result": 1, "unit": "fold"}, {"measurement": "expression of components of ECM (in words)", "setting": "dermal fibroblasts [3]; dermal fibroblasts in vitro, protein and mRNA", "result": "stimulate expression of components of ECM"}, {"measurement": "CollagenI protein, fold stimulation", "setting": "dermal fibroblasts [3]; peptide 1 μM, 72 hours", "result": 2.9, "unit": "fold"}, {"measurement": "Elastin protein, fold stimulation", "setting": "dermal fibroblasts [3]; peptide 1 μM, 72 hours", "result": 2.6, "unit": "fold"}, {"measurement": "Fibronectin protein, fold stimulation", "setting": "dermal fibroblasts [3]; peptide 1 μM, 72 hours", "result": 3.1, "unit": "fold"}, {"measurement": "MMP1 protein, fold stimulation", "setting": "dermal fibroblasts [3]; peptide 1 μM, 72 hours", "result": 1.9, "unit": "fold"}, {"measurement": "MMP2 protein, fold stimulation", "setting": "dermal fibroblasts [3]; peptide 1 μM, 72 hours", "result": 1.1, "unit": "fold"}, {"measurement": "MMP7 protein, fold stimulation", "setting": "dermal fibroblasts [3]; peptide 1 μM, 72 hours", "result": 1.9, "unit": "fold"}, {"measurement": "TIMP protein, fold stimulation", "setting": "dermal fibroblasts [3]; peptide 1 μM, 72 hours", "result": 1.3, "unit": "fold"}, {"measurement": "collagen IV protein, fold stimulation", "setting": "dermal fibroblasts [3]; peptide 1 μM, 72 hours", "result": 2.1, "unit": "fold"}, {"measurement": "thrombospondin protein, fold stimulation", "setting": "dermal fibroblasts [3]; peptide 1 μM, 72 hours", "result": 3.2, "unit": "fold"}, {"measurement": "CTGF mRNA, fold stimulation of expression compared to control", "setting": "human dermal fibroblasts [4]; peptide 10 μM", "result": 27, "unit": "fold"}, {"measurement": "HGF mRNA, fold stimulation of expression compared to control", "setting": "human dermal fibroblasts [4]; peptide 10 μM", "result": 8, "unit": "fold"}, {"measurement": "IGF-1 mRNA, fold stimulation of expression compared to control", "setting": "human dermal fibroblasts [4]; peptide 10 μM", "result": 4, "unit": "fold"}, {"measurement": "VEGF mRNA, fold stimulation of expression compared to control", "setting": "human dermal fibroblasts [4]; peptide 10 μM", "result": 4, "unit": "fold"}, {"measurement": "b-FGF mRNA, fold stimulation of expression compared to control", "setting": "human dermal fibroblasts [4]; peptide 10 μM", "result": 2, "unit": "fold"}, {"measurement": "expression of CTGF (in words)", "setting": "human dermal fibroblasts [4]; protein and mRNA", "result": "stimulate expression of CTGF significantly"}, {"measurement": "Number of genes with altered expression: expression stimulated 2-5 fold", "setting": "human dermal fibroblasts [5]", "result": 986}, {"measurement": "Number of genes with altered expression: expression stimulated more than 5 fold", "setting": "human dermal fibroblasts [5]", "result": 198}, {"measurement": "Number of genes with altered expression: expression suppressed 2-5 fold", "setting": "human dermal fibroblasts [5]", "result": 1011}, {"measurement": "Number of genes with altered expression: expression suppressed more than 5 fold", "setting": "human dermal fibroblasts [5]", "result": 124}, {"measurement": "MMP1 mRNA, fold stimulation", "setting": "dermal fibroblasts [6]", "result": 3.6, "unit": "fold"}, {"measurement": "MMP7 mRNA, fold stimulation", "setting": "dermal fibroblasts [6]", "result": 2.9, "unit": "fold"}, {"measurement": "MMp2 mRNA, fold stimulation", "setting": "dermal fibroblasts [6]", "result": 1.9, "unit": "fold"}, {"measurement": "TIMP mRNA, fold stimulation", "setting": "dermal fibroblasts [6]", "result": 4.3, "unit": "fold"}, {"measurement": "collagen IV mRNA, fold stimulation", "setting": "dermal fibroblasts [6]", "result": 5.4, "unit": "fold"}, {"measurement": "collagenI mRNA, fold stimulation", "setting": "dermal fibroblasts [6]", "result": 7.9, "unit": "fold"}, {"measurement": "elastin mRNA, fold stimulation", "setting": "dermal fibroblasts [6]", "result": 7.7, "unit": "fold"}, {"measurement": "fibronectin mRNA, fold stimulation", "setting": "dermal fibroblasts [6]", "result": 8.7, "unit": "fold"}, {"measurement": "thrombospondin mRNA, fold stimulation", "setting": "dermal fibroblasts [6]", "result": 6.9, "unit": "fold"}]}, {"sequence": "RPKKRKVRRRLATNSELVGTLTRSCKDETFLL (synethetic amino acid sequence) [TAF4.1, CPP-mimicking peptide]", "values": [{"measurement": "collagen I, fold increase after 7 days", "setting": "[1]; [7]", "result": 5, "unit": "fold"}, {"measurement": "collagen II, fold increase after 7 days", "setting": "[1]; [7]", "result": 3, "unit": "fold"}, {"measurement": "elastin, fold increase after 7 days", "setting": "[1]; [7]", "result": 4, "unit": "fold"}, {"measurement": "collagen I, fold increase after 7 days", "setting": "[1]; [8]", "result": 2, "unit": "fold"}, {"measurement": "collagen II, fold increase after 7 days", "setting": "[1]; [8]", "result": 4, "unit": "fold"}, {"measurement": "elastin, fold increase after 7 days", "setting": "[1]; [8]", "result": 2, "unit": "fold"}]}]}
